Structures can show the parent of a compound that is named as a salt. Where two headings read alike, the source gives them in different places.
Experiments:
[1] = tested on: IL-12 activation of STAT4 in NK-92 cells; assay: IL-12 activation of STAT4 in NK-92 cells using MSD as readout; assay type: cell-based; details: Homo sapiens
Experimental: IL-2 is added freshly to the medium with each medium refreshment step. Cells are cultured in a humidified incubator at 37° C. 5% CO2.
NK-92 cells are pre-incubated with test compounds or vehicle for 30 min at 37° C. 5% CO2. […] NK-92 cells are triggered with rhIL-12 for 45 min at 37° C. 5% CO2.
After 45 min of cytokine stimulation the cells are lysed by addition of 50 μL ice-cold lysis buffer (supplemented with the MSD kit). Plates are frozen at −80° C. for minimal 1 hour to lyse the cells completely. After thawing the levels of phospho-STAT4 are quantified using the Phospho-STAT4 (Tyr693) kit (MSD, Catalogue number K150PAD-2) according to the manufacturer's instructions. Electroluminescent signal is measured on the MSD reader.
The percentage inhibition is calculated as: […]
RLU (trigger/veh): Relative lumescent signal determined in presence of vehicle and trigger
RLU (test compound): Relative luminescent signal determined in presence of test compounds)
PIN values are plotted for compounds tested in dose-response and IC50 values are derived using LIMS Software applying non-linear regression (sigmoidal) curve fitting. The data are expressed as the average IC50 from different experiments.

[2] = tested on: IFNα activation of STAT1 in PBMC; assay: IFNα activation of STAT1 in PBMC; assay type: cell-based; details: Homo sapiens
How it was run: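 Human PBMC, with red cells lysed by NH4Cl, were pre-treated with compound for 30 min at 37 °C and 5% CO2. They were then stimulated for 30 min with recombinant human IFNα at 5 ng/mL final.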

[3] = tested on: IL-12 activation of STAT4 in NK-92 cells; assay: IL-12 activation of STAT4 in NK-92 cells using AphaLISA SureFire technology; assay type: cell-based; details: Homo sapiens
How it was run: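 NK-92 cells, starved of rhIL-2 overnight, were stimulated with rhIL-12 for 30 min at 37 °C with test compounds, then lysed. Phospho-STAT4 (Tyr693) was read by AlphaLISA SureFire. Percent inhibition versus the vehicle-plus-trigger signal was fitted by sigmoidal nonlinear regression to give IC50, averaged over experiments.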

[4] = biological target: T1, Recombinant human JAK2 (catalytic domain, amino acids 808-1132) (Homo sapiens, UniProt O60674); assay: JAK2 inhibition assay; assay type: biochemical; details: read-out: JAK2 potency IC50; also: 0.7 µM ATP
T1 construct: catalytic domain, amino acids 808-1132

[5] = biological target: Recombinant human JAK3 catalytic domain (amino acids 781-1124) (Homo sapiens, UniProt P52333); assay: JAK3 inhibition assay; assay type: biochemical
How it was run: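 Radiometric kinase reaction run 45 min at 30° C., stopped with phosphoric acid; activity as vehicle cpm minus 10 μM staurosporine cpm.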

[6] = biological target: T2, Recombinant human JAK1 (catalytic domain, amino acids 866-1154) (Homo sapiens, UniProt P23458); assay: JAK1 inhibition assay; assay type: biochemical; details: read-out: JAK1 potency IC50
T2 construct: catalytic domain, amino acids 866-1154

[7] = biological target: T3, Recombinant human TYK2 catalytic domain (amino acids 871-1187) (Homo sapiens, UniProt P29597); assay: TYK2 radioactive assay polyGT substrate; assay type: biochemical; also: 0.1 µM ATP
T3 construct: catalytic domain (amino acids 871-1187)
T3 sequence (P29597 871-1187): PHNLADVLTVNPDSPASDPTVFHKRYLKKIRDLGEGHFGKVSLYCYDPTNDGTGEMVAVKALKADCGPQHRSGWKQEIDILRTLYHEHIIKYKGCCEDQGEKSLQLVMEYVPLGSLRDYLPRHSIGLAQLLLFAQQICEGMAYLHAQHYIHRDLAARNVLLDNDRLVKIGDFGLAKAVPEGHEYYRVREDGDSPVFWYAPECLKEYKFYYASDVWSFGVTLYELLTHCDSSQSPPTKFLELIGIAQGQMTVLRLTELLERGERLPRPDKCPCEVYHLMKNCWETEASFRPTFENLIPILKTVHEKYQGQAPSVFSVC
How it was run: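 Reaction at 30° C. for 120 min, ended with 150 mM phosphoric acid, washed, counted; percent inhibition scaled between vehicle and 10 μM staurosporine cpm.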

[8] = NK92, NK-92 cells, rhIL-12 25 ng/mL, MSD readout, read-out: IL12 pSTAT4 IC50
[9] = IFNα activation of STAT1 in PBMC, average IC50, read-out: IFNα signaling inhibitory potency IC50
[10] = NK92, IL-12 activation of STAT4 in NK-92 cells, AlphaLISA SureFire, average IC50, read-out: IL12 pSTAT4 IC50

Sequence of Recombinant human JAK3 catalytic domain (amino acids 781-1124) (P52333 781-1124): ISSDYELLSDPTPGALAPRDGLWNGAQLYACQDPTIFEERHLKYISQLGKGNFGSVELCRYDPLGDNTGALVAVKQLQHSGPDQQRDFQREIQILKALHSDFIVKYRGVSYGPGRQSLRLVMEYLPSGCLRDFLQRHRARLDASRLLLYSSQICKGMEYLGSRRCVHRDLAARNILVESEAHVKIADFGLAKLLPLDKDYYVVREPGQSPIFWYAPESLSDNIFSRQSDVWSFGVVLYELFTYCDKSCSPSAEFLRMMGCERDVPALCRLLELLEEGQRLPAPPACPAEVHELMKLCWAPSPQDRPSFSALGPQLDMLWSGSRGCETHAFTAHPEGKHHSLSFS
T2 sequence (P23458 866-1154): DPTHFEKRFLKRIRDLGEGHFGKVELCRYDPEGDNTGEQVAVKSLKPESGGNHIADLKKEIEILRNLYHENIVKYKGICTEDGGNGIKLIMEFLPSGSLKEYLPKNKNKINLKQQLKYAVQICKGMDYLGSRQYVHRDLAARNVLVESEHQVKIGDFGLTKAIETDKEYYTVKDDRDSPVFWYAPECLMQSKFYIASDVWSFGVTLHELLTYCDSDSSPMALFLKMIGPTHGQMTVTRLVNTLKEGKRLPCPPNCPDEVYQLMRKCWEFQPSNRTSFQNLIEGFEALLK
T1 sequence (O60674 808-1132): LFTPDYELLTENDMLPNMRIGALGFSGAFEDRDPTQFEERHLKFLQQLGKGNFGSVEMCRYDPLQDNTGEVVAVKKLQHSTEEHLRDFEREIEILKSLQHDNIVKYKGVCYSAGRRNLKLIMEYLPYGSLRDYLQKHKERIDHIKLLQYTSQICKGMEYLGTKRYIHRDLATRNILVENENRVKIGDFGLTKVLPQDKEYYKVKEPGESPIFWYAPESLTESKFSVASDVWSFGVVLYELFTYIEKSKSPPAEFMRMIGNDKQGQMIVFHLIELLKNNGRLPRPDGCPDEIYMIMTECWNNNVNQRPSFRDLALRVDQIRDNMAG

| Compound | IC50 [1, 8] [nM] | IC50 [4] [nM] | IC50 [5] [nM] | IC50 [6] [nM] | IC50 [7] [nM] | IC50 [3, 10] [nM] | IC50 ([1]; NK92, read-out: IL12 pSTAT4 IC50) [nM] | IC50 ([2]; PBMC, read-out: IFNα signaling inhibitory potency IC50 (nM)) [nM] | IC50 ([3]; NK92, read-out: IL12 pSTAT4 IC50 (nM)) [nM] | IC50 [2, 9] [nM] |
| --- | --- | --- | --- | --- | --- | --- | --- | --- | --- | --- |
| Cc1cc(S(C)(=O)=O)cc(F)c1Oc1cc(Nc2cc(N)ncn2)c2ncn(C)c2n1 [Compound 2, N-[5-(2-Fluoro-4-methanesulfonyl-6-methyl-phenoxy)-3-methyl-3H-imidazo[4,5-b]pyridin-7-yl]-pyrimidine-4,6-diamine] | – | – | – | – | – | – | 259 | 87 | 73.5 | – |
| CN(c1cc(Nc2cc(N)ncn2)c2ncn(C)c2n1)C1CCOCC1(C)C (centres unmarked) [Compound 11, N7-(6-Amino-pyrimidin-4-yl)-N5-(3,3-dimethyl-tetrahydro-pyran-4-yl)-3,N5-dimethyl-3H-imidazo[4,5-b]pyridine-5,7-diamine] | 377 | 4.75 | 143 | 27.2 | 1.81 | – | – | – | – | – |
| CN(c1cc(Nc2cc(N)ncn2)c2ncn(C)c2n1)c1c(F)cc(C#N)cc1C1CC1 [Compound 14, 4-{[7-(6-Amino-pyrimidin-4-ylamino)-3-methyl-3H-imidazo[4,5-b]pyridin-5-yl]-methyl-amino}-3-cyclopropyl-5-fluoro-benzonitrile] | 1500 | 17 | 279 | 91.4 | 3.83 | – | – | – | – | – |
| Cc1cc(C#N)ncc1Oc1cc(Nc2ccc(S(C)(=O)=O)cc2)c2ncn(C)c2n1 [Compound 60, 4-methyl-5-[3-methyl-7-(4-methylsulfonylanilino)imidazo[4,5-b]pyridin-5-yl]oxy-pyridine-2-carbonitrile] | 1150 | – | – | – | 9.72 | – | – | – | – | 73 |
| Cc1cc(C#N)ncc1Nc1cc(Nc2ccc(C(=O)N(C)C)cc2)c2ncn(C)c2n1 [Compound 66, 4-[[5-[(6-cyano-4-methyl-3-pyridyl)amino]-3-methyl-imidazo[4,5-b]pyridin-7-yl]amino]-N,N-dimethyl-benzamide] | 1650 | – | – | – | 11.7 | 205 | – | – | – | 138 |
| CC(Oc1cc(Nc2cc(N)ncn2)c2ncn(C)c2n1)C1CC1 (centres unmarked) [Compound 72, N4-[5-(1-cyclopropylethoxy)-3-methyl-imidazo[4,5-b]pyridin-7-yl]pyrimidine-4,6-diamine] | 27.7 | – | – | – | 1.41 | 57.2 | – | – | – | 124 |
| CC(C)[C@@H](Nc1cc(Nc2cc(N)ncn2)c2ncn(C)c2n1)C(F)(F)F [Compound 98, N7-(6-aminopyrimidin-4-yl)-3-methyl-N5-[(1R)-2-methyl-1-(trifluoromethyl)propyl]imidazo[4,5-b]pyridine-5,7-diamine] | – | 6.31 | 48.2 | 28.2 | 3.04 | 18.9 | – | – | – | 38 |
| Cc1cc(C#N)ncc1Oc1cc(Nc2cnn(CCN3CCOCC3)c2)c2ncn(C)c2n1 [Compound 186, 4-methyl-5-[3-methyl-7-[[1-(2-morpholinoethyl)pyrazol-4-yl]amino]imidazo[4,5-b]pyridin-5-yl]oxy-pyridine-2-carbonitrile] | – | 22.2 | 257 | 77.2 | 6.27 | 241 | – | – | – | 229 |

Further lines, with some results ahead:

| IC50 [1, 8] [nM] | IC50 [4] [nM] | IC50 [5] [nM] | IC50 [6] [nM] | IC50 [7] [nM] | IC50 [3, 10] [nM] | Compound | IC50 ([1]; NK92, read-out: IL12 pSTAT4 IC50) [nM] | IC50 ([2]; PBMC, read-out: IFNα signaling inhibitory potency IC50 (nM)) [nM] | IC50 ([3]; NK92, read-out: IL12 pSTAT4 IC50 (nM)) [nM] | IC50 [2, 9] [nM] |
| --- | --- | --- | --- | --- | --- | --- | --- | --- | --- | --- |
| 3370 | – | – | – | 9.01 | – | Cc1cc(C#N)ncc1Oc1cc(Nc2ccc(C(=O)NCC(C)O)cn2)c2ncn(C)c2n1 (centres unmarked) [Compound 24, 6-[5-(6-Cyano-4-methyl-pyridin-3-yloxy)-3-methyl-3H-imidazo[4,5-b]pyridin-7-ylamino]-N-(2-hydroxy-propyl)-nicotinamide] | – | – | – | 151 |
| 1530 | 873 | – | 338 | 74 | – | CCNC(=O)c1ccc(Nc2cc(Oc3cnc(C#N)cc3C)nc3c2ncn3C)cn1 [Compound 26, 5-[5-(6-Cyano-4-methyl-pyridin-3-yloxy)-3-methyl-3H-imidazo[4,5-b]pyridin-7-ylamino]-pyridine-2-carboxylic acid ethylamide] | – | – | – | – |
| 7460 | – | – | – | 45.4 | – | Cc1cc(C#N)ncc1Oc1cc(Nc2ccc(CN)cc2)c2ncn(C)c2n1 [Compound 57, 5-[7-[4-(aminomethyl)anilino]-3-methyl-imidazo[4,5-b]pyridin-5-yl]oxy-4-methyl-pyridine-2-carbonitrile formate salt] | – | – | – | 405 |
| 199 | – | – | – | 3.44 | 158 | Cc1cc(C#N)ncc1Oc1cc(Nc2ccc(C(=O)N(C)C)nn2)c2ncn(C)c2n1 [Compound 73, 6-[[5-[(6-cyano-4-methyl-3-pyridyl)oxy]-3-methyl-imidazo[4,5-b]pyridin-7-yl]amino]-N,N-dimethyl-pyridazine-3-carboxamide] | – | – | – | 81 |
| – | 38.8 | 979 | 73.1 | 8.81 | 266 | Cc1cc(C#N)ncc1Oc1cc(Nc2ccc(C3CCOCC3)cn2)c2ncn(C)c2n1 [Compound 87, 4-methyl-5-[3-methyl-7-[[5-(oxan-4-yl)pyridin-2-yl]amino]imidazo[4,5-b]pyridin-5-yl]oxypyridine-2-carbonitrile] | – | – | – | 158 |
| – | 110 | 1990 | 71.5 | 11 | 476 | Cc1cc(C#N)ncc1Oc1cc(Nc2ccc(C3(O)COC3)cc2)c2ncn(C)c2n1 [Compound 89, 5-[7-[4-(3-hydroxyoxetan-3-yl)anilino]-3-methylimidazo[4,5-b]pyridin-5-yl]oxy-4-methylpyridine-2-carbonitrile] | – | – | – | 266 |
| – | 29.1 | 2110 | 107 | 8.88 | 968 | Cc1cc(C#N)ncc1Oc1cc(Nc2ccc(C(=O)N3CC(O)C3)nn2)c2ncn(C)c2n1 [Compound 115, 5-[7-[[6-(3-hydroxyazetidine-1-carbonyl)pyridazin-3-yl]amino]-3-methyl-imidazo[4,5-b]pyridin-5-yl]oxy-4-methyl-pyridine-2-carbonitrile] | – | – | – | 144 |
| – | 28.3 | 1200 | 151 | 5.41 | 79 | COC1CN(C(=O)c2ccc(Nc3cc(Oc4cnc(C#N)cc4C)nc4c3ncn4C)nn2)C1 [Compound 116, 5-[7-[[6-(3-methoxyazetidine-1-carbonyl)pyridazin-3-yl]amino]-3-methyl-imidazo[4,5-b]pyridin-5-yl]oxy-4-methyl-pyridine-2-carbonitrile] | – | – | – | 113 |
| – | 32.3 | 2030 | 205 | 8.47 | 181 | COCC1CN(C(=O)c2ccc(Nc3cc(Oc4cnc(C#N)cc4C)nc4c3ncn4C)nn2)C1 [Compound 117, 5-[7-[[6-[3-(methoxymethyl)azetidine-1-carbonyl]pyridazin-3-yl]amino]-3-methyl-imidazo[4,5-b]pyridin-5-yl]oxy-4-methyl-pyridine-2-carbonitrile] | – | – | – | 148 |
| – | 18.2 | 409 | 81.7 | 6.61 | 769 | Cc1cc(C#N)ncc1Oc1cc(Nc2ccc(N3CCNCC3)cn2)c2ncn(C)c2n1 [Compound 180, 4-methyl-5-[3-methyl-7-[(5-piperazin-1-yl-2-pyridyl)amino]imidazo[4,5-b]pyridin-5-yl]oxy-pyridine-2-carbonitrile] | – | – | – | 84 |

Reference: patent publication US11564923B2, “Compounds and pharmaceutical compositions thereof for the treatment of inflammatory disorders” (Galapagos NV, priority 2017, dated 2023)
